Reference: US12286437B2, “Cardiac sarcomere inhibitors” (Cytokinetics, Inc., priority 2021, dated 2025)
Read-outs that look alike come from different tables or passages of the source.

Key:
[1] = Dog cassette dosing pharmacokinetics; format: in vivo, beagle dogs; conditions: male, beagle, plasma, IV; for Vd: read-out: Vss; for half-life: read-out: t½ (converted)
Method: Non-naïve male beagle dogs (8 months to 3 years of age, body weight 8-14 kg) sourced from Jiangsu Johnsen Bioresource CO. and/or Beijing Rixinkeji CO., LTD and/or Beijing Marshall Biotechnology CO., LTD were used in this study. All animals for IV administration had free access to food and water. The IV dose solution was prepared in 10% DMA/50% PG/40% HPβCD solution (40% w/v aqueous HPβCD) at a concentration of 0.2 mg/mL. Concentrations of IV dose was measured at the end of the study. PK parameters were calculated using the nominal dose values if the measured values were within 20% of the nominal values. Blood samples were collected by venipuncture of peripheral veins except the dosing vein at pre-dose, 5 15, 30 min, 1, 2, 4, 6, 8 and 24 h post-dose. Blood samples were centrifuged and resultant plasma was frozen for bioanalysis. Plasma samples were stored at −80° C. before analysis. Plasma samples were analyzed for compound concentrations using the LC/MS/MS method. Briefly, a 50 μL aliquot of each plasma sample was mixed with 100 μL of acetonitrile that contained an internal standard. The mixture was vortexed and centrifuged. Ten (10) μL of the resulting solution was injected onto a reverse-phase C18 column and the resultant peaks detected on a LC/MS/MS equipped with a turbo ionspray ionization source. Sample concentrations below the limit of quantification (BLQ) were treated as zero for PK calculations. PK parameters were estimated from individual animals using noncompartmental analysis of the concentration-time data (Phoenix WinNonLin software, version 64; Pharsight, Mountain View, CA). The elimination rate constant (k) was calculated as the absolute value of the slope of the linear regression of logarithm (log) of the concentration versus time for the last three data points of the concentration-time profiles. Apparent elimination half-life (t1/2) values were calculated as ln(2)/k. Area under the concentration-time curve (AUC) values were estimated using linear trapezoidal method. AUCt values were calculated from the dosing time to the last measurable concentration. AUC∞ values were calculated as the sum of the corresponding AUCt and the ratio of the last detectable concentration divided by k. Plasma clearance (CL) was calculated from Dose/AUC∞. Mean resident time extrapolated to infinity (MRT∞) was estimated by moment analysis. Vss was calculated from MRT∞×CL. Maximum concentration (Cmax) and time to reach Cmax (tmax) were recorded as observed. As this was a cross-over study, bioavailability was calculated dAUC∞,po/dAUC∞,iv×100% where dAUC was the dose normalized AUC value from the same animal given IV and PO dose. Data for compounds tested are provided in Table G. Compounds tested were prepared in accordance with the synthetic procedures described herein.

[2] = system: Rat Cardiac Contractility; experiment: Echocardiography assessment of acute pharmacodynamic effect in rat cardiac contractility (fractional shortening); format: in vivo, Sprague Dawley rats; conditions: oral gavage, plasma concentration vs fractional shortening, 1 and 4 h post-dose
Method: Assessment of in vivo cardiac function by echocardiography was performed in male Sprague Dawley rats under isoflurane (1-3%) anesthesia. 2-D M-mode images of the left ventricle were acquired in the parasternal long-axis view before, during, and after administration of compounds. In vivo fractional shortening was determined by M-mode image analysis with the following calculation: ((End diastolic diameter−end systolic diameter)[…] end diastolic diameter×100). Three pre-dose baseline M-Mode images were taken at 1-minute intervals prior to compound administration. Compounds were formulated in a 0.5% hydroxypropyl methylcellulose 2910 (HPMC 2910): 0.1% Tween 80 suspension and delivered as a single dose (5 mL/kg) by oral gavage. At one and four hours post-dose, rats were lightly anesthetized for M-mode echocardiography measurement. Concurrent with echocardiography measurements, blood samples were taken to determine the corresponding compound plasma concentrations. The resulting plasma concentrations were used to estimate the IC50 and IC10 values, which is the concentration at which fractional shortening is 50% and 10% of the pre-dose baseline contractility, respectively.

[3] = Projected single-dose CL and Vss values in humans (allometric scaling of mouse, rat, dog, monkey IV PK); conditions: human, projected by allometric scaling from single-dose IV PK
Method: Allometric scaling for the prediction of human Clearance and Volume of Distribution was based on interspecies simple allometric scaling of mouse, rat, dog, and cynomolgus monkey intravenous pharmacokinetic parameters (Boxenbaum, J Pharmacokinet Biopharm 10:201-27, 1982). Prediction of human CL was performed by extrapolating pre-clinical species' plasma intravenous clearance. The ‘rule of exponents’ (Mahmood & Balian, Life Sci 59:579-85, 1996) was examined in this prediction, where it has been proposed that, when the exponent of simple allometry lies between […] and 0.99, a correction factor based on Maximum Life Span (MLP) of this species can be applied and, when the exponent of simple allometry is greater than 1.0, a correction factor based on Brain Weight (BrW) can be applied, or a protein binding correction can be applied when available. In a similar manner, simple allometric scaling was employed to predict human Volume of Distribution. This method has been used successfully for varied drugs (Ward & Smith, Drug Metab Dispos 32:612-19, 2004; McGinnity et al., Curr Drug Metab 8:463-79, 2007).

[4] = biological target: T1, CYP3A4 (Homo sapiens, UniProt P08684); experiment: Time-dependent inhibition of CYP3A4 in human liver microsomes (testosterone and midazolam probes); format: in vitro ADME; conditions: for (% Activity NADPH T0)/(% Activity NADPH T30): fold change; for activity at 30 min, 25 µM / activity at 30 min, 50 µM: human, after 30 minutes incubation, read-out: % Activity NADPH T30; for activity at 30 min, 25 µM / activity at 30 min, 50 µM / activity at 0 min, 25 µM / activity at 0 min, 50 µM: pooled human liver microsomes; for activity at 0 min, 25 µM / activity at 0 min, 50 µM: human liver microsomes, time zero, read-out: % Activity NADPH T0
T1 construct: Pooled human microsomes and selective CYP probe substrates were used; from tissue; host or cells: pooled human liver microsomes
T1 sequence (P08684 whole entry): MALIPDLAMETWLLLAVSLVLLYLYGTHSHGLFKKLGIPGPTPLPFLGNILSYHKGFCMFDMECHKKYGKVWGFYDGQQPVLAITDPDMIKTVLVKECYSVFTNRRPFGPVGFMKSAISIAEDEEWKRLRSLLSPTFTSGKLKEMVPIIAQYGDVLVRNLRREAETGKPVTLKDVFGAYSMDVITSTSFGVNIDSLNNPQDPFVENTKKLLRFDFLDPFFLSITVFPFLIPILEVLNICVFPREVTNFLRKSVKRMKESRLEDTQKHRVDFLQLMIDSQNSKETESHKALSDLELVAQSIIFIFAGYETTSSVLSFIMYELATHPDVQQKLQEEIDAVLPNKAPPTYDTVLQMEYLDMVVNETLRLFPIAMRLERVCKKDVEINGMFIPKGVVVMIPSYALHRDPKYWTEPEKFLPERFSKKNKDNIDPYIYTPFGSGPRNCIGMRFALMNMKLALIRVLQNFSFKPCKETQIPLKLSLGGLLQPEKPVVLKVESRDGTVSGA
Method: An assessment of the time-dependent Inhibitory Potential of the test compounds against Principal Human Cytochrome P450 Isozymes using Human Liver Microsomes was also carried out using standard methods (Grimm et al, Drug Metab. Dispos., July; 37(7):1355-70. doi: 10.1124/dmd.109.026716, 2009). Pooled human microsomes and selective CYP probe substrates were used for in vitro assessment of test compounds at 25 and 50 μM as time-dependent inhibitors of […] human hepatic cytochrome P450 isozymes (CYP1A2, 2B6, 2C9, 2C19, 2D6, and 3A4). LC-MS/MS was used to quantify metabolite formation. The inhibition of each P450 enzyme in human liver microsomes was measured as the percentage decrease in the activity of marker metabolite formation as measured by LC-MS/MS compared to non-inhibited controls (=100% activity) at time zero and after 30 minutes incubation. The occurrence of any time dependent inhibition was then expressed as the fold change in enzyme activity at time zero relative to the activity after 30 minutes incubation.

[5] = CYP3A4-M (midazolam probe substrate), 25 μM
[6] = CYP3A4-M (midazolam probe substrate), 50 μM
[7] = CYP3A4-T (testosterone probe substrate), 25 μM
[8] = CYP3A4-T (testosterone probe substrate), 50 μM

C[C@H]1CC[C@H](N2CC(=O)N(Cc3ccc(Cl)cc3)C3(CN(C(N)=O)C3)C2=O)CC1 [Compound 18, 5-(4-chlorobenzyl)-8-((1r,4r)-4-methylcyclohexyl)-6,9-dioxo-2,5,8-triazaspiro[3.5]nonane-2-carboxamide]
clearance [1]: 7.07 mL/min/kg
Vd [1]: 4.29 L/kg
half-life [1]: 9.08 h
IC10 [2]: 0.892 µM
IC50 [2]: 2.83 µM
Projected CL [3]: 3.3 mL/min/kg
Projected Vss [3]: 7.1 L/kg
Projected t½ [3]: 25 h
(% Activity NADPH T0)/(% Activity NADPH T30) [4, 5]: 1.8
(% Activity NADPH T0)/(% Activity NADPH T30) [4, 6]: 1.2
(% Activity NADPH T0)/(% Activity NADPH T30) [4, 7]: 1.2
(% Activity NADPH T0)/(% Activity NADPH T30) [4, 8]: 1.1
activity at 30 min, 25 µM [4, 5]: 71%
activity at 30 min, 50 µM [4, 6]: 102%
activity at 30 min, 25 µM [4, 7]: 85%
activity at 30 min, 50 µM [4, 8]: 75%
activity at 0 min, 25 µM [4, 5]: 125%
activity at 0 min, 50 µM [4, 6]: 126%
activity at 0 min, 25 µM [4, 7]: 100%
activity at 0 min, 50 µM [4, 8]: 85%

C[C@H]1CC[C@H](N2CC(=O)N(Cc3ccc(F)c(Cl)c3)C3(CN(C(N)=O)C3)C2=O)CC1 [Compound 7, 5-(3-chloro-4-fluorobenzyl)-8-((1r,4r)-4-methylcyclohexyl)-6,9-dioxo-2,5,8-triazaspiro[3.5]nonane-2-carboxamide]
clearance [1]: 9.22 mL/min/kg
Vd [1]: 6.33 L/kg
half-life [1]: 10.9 h
(% Activity NADPH T0)/(% Activity NADPH T30) [4, 5]: 1.0
(% Activity NADPH T0)/(% Activity NADPH T30) [4, 6]: 1.0
(% Activity NADPH T0)/(% Activity NADPH T30) [4, 7]: 1.0
(% Activity NADPH T0)/(% Activity NADPH T30) [4, 8]: 1.0
activity at 30 min, 25 µM [4, 5]: 100%
activity at 30 min, 50 µM [4, 6]: 100%
activity at 30 min, 25 µM [4, 7]: 100%
activity at 30 min, 50 µM [4, 8]: 100%
activity at 0 min, 25 µM [4, 5]: 100%
activity at 0 min, 50 µM [4, 6]: 100%
activity at 0 min, 25 µM [4, 7]: 100%
activity at 0 min, 50 µM [4, 8]: 100%

CC(C)N1CC(=O)N(Cc2ccc(Cl)c(F)c2)C2(CN(c3cccnn3)C2)C1=O [Compound 8, 5-(4-chloro-3-fluorobenzyl)-8-isopropyl-2-(pyridazin-3-yl)-2,5,8-triazaspiro[3.5]nonane-6,9-dione]
clearance [1]: 15.6 mL/min/kg
Vd [1]: 6.26 L/kg
half-life [1]: 5.66 h
IC10 [2]: 0.508 µM
IC50 [2]: 2.25 µM
(% Activity NADPH T0)/(% Activity NADPH T30) [4, 5]: 1.0
(% Activity NADPH T0)/(% Activity NADPH T30) [4, 6]: 1.0
(% Activity NADPH T0)/(% Activity NADPH T30) [4, 7]: 1.0
(% Activity NADPH T0)/(% Activity NADPH T30) [4, 8]: 1.0
activity at 30 min, 25 µM [4, 5]: 100%
activity at 30 min, 50 µM [4, 6]: 100%
activity at 30 min, 25 µM [4, 7]: 100%
activity at 30 min, 50 µM [4, 8]: 100%
activity at 0 min, 25 µM [4, 5]: 100%
activity at 0 min, 50 µM [4, 6]: 100%
activity at 0 min, 25 µM [4, 7]: 100%
activity at 0 min, 50 µM [4, 8]: 100%

Cc1cc(CN2C(=O)CN([C@H]3CC[C@H](C)CC3)C(=O)C23CN(C(N)=O)C3)ccc1F [Compound 6, 5-(4-fluoro-3-methylbenzyl)-8-((1r,4r)-4-methylcyclohexyl)-6,9-dioxo-2,5,8-triazaspiro[3.5]nonane-2-carboxamide]
clearance [1]: 9.08 mL/min/kg
Vd [1]: 3.98 L/kg
half-life [1]: 7.11 h
(% Activity NADPH T0)/(% Activity NADPH T30) [4, 5]: 1.0
(% Activity NADPH T0)/(% Activity NADPH T30) [4, 6]: 0.8
(% Activity NADPH T0)/(% Activity NADPH T30) [4, 7]: 1.3
(% Activity NADPH T0)/(% Activity NADPH T30) [4, 8]: 1.4
activity at 30 min, 25 µM [4, 5]: 89%
activity at 30 min, 50 µM [4, 6]: 86%
activity at 30 min, 25 µM [4, 7]: 76%
activity at 30 min, 50 µM [4, 8]: 63%
activity at 0 min, 25 µM [4, 5]: 89%
activity at 0 min, 50 µM [4, 6]: 72%
activity at 0 min, 25 µM [4, 7]: 95%
activity at 0 min, 50 µM [4, 8]: 89%

C[C@H]1CC[C@H](N2CC(=O)N(Cc3ccc(F)c(F)c3)C3(CN(C=O)C3)C2=O)CC1 [Compound 4, 5-(3,4-difluorobenzyl)-8-((1r,4r)-4-methylcyclohexyl)-6,9-dioxo-2,5,8-triazaspiro[3.5]nonane-2-carbaldehyde]
IC10 [2]: 0.284 µM
IC50 [2]: 2.76 µM
Projected CL [3]: 1.84 mL/min/kg
Projected Vss [3]: 4.51 L/kg
Projected t½ [3]: 28.3 h
(% Activity NADPH T0)/(% Activity NADPH T30) [4, 5]: 0.8
(% Activity NADPH T0)/(% Activity NADPH T30) [4, 6]: 0.7
(% Activity NADPH T0)/(% Activity NADPH T30) [4, 7]: 0.9
(% Activity NADPH T0)/(% Activity NADPH T30) [4, 8]: 0.8

C[C@H]1CC[C@H](N2CC(=O)N(Cc3ccc(F)c(F)c3)C3(CN(C(N)=O)C3)C2=O)CC1 [Compound 5, 5-(3,4-difluorobenzyl)-8-((1r,4r)-4-methylcyclohexyl)-6,9-dioxo-2,5,8-triazaspiro[3.5]nonane-2-carboxamide]
clearance [1]: 9.26 mL/min/kg
Vd [1]: 6.17 L/kg
half-life [1]: 9.86 h
IC10 [2]: 1.17 µM
IC50 [2]: 4.44 µM
(% Activity NADPH T0)/(% Activity NADPH T30) [4, 5]: 1.1
(% Activity NADPH T0)/(% Activity NADPH T30) [4, 6]: 1.9
(% Activity NADPH T0)/(% Activity NADPH T30) [4, 7]: 1.1
(% Activity NADPH T0)/(% Activity NADPH T30) [4, 8]: 1.4
activity at 30 min, 25 µM [4, 5]: 69%
activity at 30 min, 50 µM [4, 6]: 35%
activity at 30 min, 25 µM [4, 7]: 87%
activity at 30 min, 50 µM [4, 8]: 68%
activity at 0 min, 25 µM [4, 5]: 75%
activity at 0 min, 50 µM [4, 6]: 67%
activity at 0 min, 25 µM [4, 7]: 100%
activity at 0 min, 50 µM [4, 8]: 98%
